For one test, the target named is GPR55 (Homo sapiens, UniProt Q9Y2T6). The conditions noted are these: cited from earlier work.
The target of test [1] is T1, CB2R (Homo sapiens, UniProt P34972). The conditions noted are these: cited from earlier work.
The target in test [2] is T1, CB2R. The conditions noted are these: cited from earlier work. The source holds these as a separate data set.
Another test has as its system migraine pain. The conditions noted are these: preclinical, cited from earlier work.
Test [3] concerns cortical KCl induced periorbital allodynia in female rats. Put plainly: Cortical KCl induced periorbital (facial) allodynia in female rats. The format is in vivo, rat. The conditions noted are these: for reversal of periorbital allodynia / prevention of periorbital allodynia: female rats. Here is the method:
FIG. 2A-D: Cortical KCl, but not dural KCl, induces periorbital allodynia in female rats and activates cFOS. A. Cortical KCl (0.5 μL, 1M) induces significant periorbital allodynia that is not blocked by dural lidocaine (2%, 5 μl, 10-15 min) pretreatment. […] C. Comparing areas under the curves for A and B confirmed that cortical KCl, regardless of dural lidocaine, induces significant periorbital allodynia that is not replicated by dural application of KCl. D. Cortical KCl allodynia increases cortical cFos 90 min post-injection (n=3-4/group). Data are mean±SEM (n=8-11), one or two-way ANOVA, *p<0.05: **<0.01: ***p<0.001: dotted line-naïve.
FIG. 8A-B: MAGL inhibition alleviates cortical KCl induced periorbital allodynia in female rats. […] Data are expressed mean±SEM (n=8-12), two-way RMANOVA Bonferroni, *p<0.051 **p<0.01: ****p<0.0001.
FIG. 9A-B: ABHD6 inhibition alleviates cortical KCl induced periorbital allodynia in female rats. […] Data are expressed mean±SEM (n=8-12), two-way RMANOVA Bonferroni, *p<0.05: **p<0.01: ***p<0.001.
FIG. 10A-B: Dual MAGL/ABHD6 inhibition alleviates cortical KCl induced periorbital allodynia in female rats. […] Data are expressed mean±SEM (n=7-14), two-way RMANOVA, Bonferroni, *p<0.05: **p<0.01: ****p<0.0001.
FIG. 13A-B: MAGL inhibition and cannabinoid receptor selectivity. Injection of CB1R antagonist, rimonabant (1 mg/kg, IP) prior to KCl shifted onset of MJN110 (10 mg/kg, IP) by 30 min. CB2R antagonist, SR144528 (1 mg/kg, IP), injected prior to KCl blocked the anti-allodynic effect of MJN110. Data are expressed mean±SEM (n=9), one- and two-way ANOVA, *p<0.05, ***p<0.001, ****p<0.0001.
Data are expressed mean±SEM (n=8-12), two-way RMANOVA Bonferroni, *p<0.051 **p<0.01: ****p<0.0001.
Data are expressed mean±SEM (n=8-12), two-way RMANOVA Bonferroni, *p<0.05: **p<0.01: ***p<0.001.
Data are expressed mean+SEM (n=7-14), two-way RMANOVA, Bonferroni, *p<0.05: **p<0.01: ****p<0.0001.
Injection of CB1R antagonist, rimonabant (1 mg/kg, IP) prior to KCl shifted onset of MJN110 (10 mg/kg, IP) by 30 min. CB2R antagonist, SR144528 (1 mg/kg, IP), injected prior to KCl blocked the anti-allodynic effect of MJN110. Data are expressed mean #SEM (n=9), one- and two-way ANOVA, *p<0.05, ***p<0.001, ****p<0.0001.

The source of these data is patent US12599600B2, “Compositions and methods for preventing and treating headache through enhancing 2-arachydonyl glyerol activity” (Arizona Board of Regents on Behalf of the University of …, priority 2020, dated 2026).

Usually EC50 stands for the concentration that produces a half-maximal response. By Ki is commonly meant the equilibrium dissociation constant of an inhibitor or competing ligand from its target. Usually Emax stands for the maximal effect, on the per cent scale that the assay sets.

T1 sequence (P34972 whole entry): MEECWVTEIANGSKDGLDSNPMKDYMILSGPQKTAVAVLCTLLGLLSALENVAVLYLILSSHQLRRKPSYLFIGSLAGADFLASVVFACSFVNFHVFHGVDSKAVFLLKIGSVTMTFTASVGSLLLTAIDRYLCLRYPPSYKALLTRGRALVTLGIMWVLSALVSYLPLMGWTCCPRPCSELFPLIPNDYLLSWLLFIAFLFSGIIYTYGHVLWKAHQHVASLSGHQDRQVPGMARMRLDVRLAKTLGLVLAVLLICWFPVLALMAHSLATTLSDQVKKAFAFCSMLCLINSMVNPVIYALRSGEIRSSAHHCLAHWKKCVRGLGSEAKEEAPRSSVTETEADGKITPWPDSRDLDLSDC
Sequence of GPR55 (Q9Y2T6 whole entry, species assumed): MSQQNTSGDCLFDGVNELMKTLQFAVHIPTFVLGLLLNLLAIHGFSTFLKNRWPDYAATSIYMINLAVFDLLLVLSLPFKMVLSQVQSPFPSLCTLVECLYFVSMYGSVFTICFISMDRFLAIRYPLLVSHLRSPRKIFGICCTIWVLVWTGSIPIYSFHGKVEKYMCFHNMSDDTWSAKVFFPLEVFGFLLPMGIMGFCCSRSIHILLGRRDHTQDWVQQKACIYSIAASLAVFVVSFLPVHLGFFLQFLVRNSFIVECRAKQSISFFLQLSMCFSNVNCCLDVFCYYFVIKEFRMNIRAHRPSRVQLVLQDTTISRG

Turning to `CCCCC/C=C\C/C=C\C/C=C\C/C=C\CCCC(=O)OC(CO)CO` [2AG, 2-arachidonoylglycerol], the concentration for a half-maximal effect (EC50) at GPR55 was 618 nM. Further, the Ki on CB2R [1] was 175 to 1400 nM. Moreover, on CB2R [2], the EC50 was 4 nM and the Emax is recorded as 34%.

For the compound `CCCCCc1cc(O)c2c(c1)OC(C)(C)[C@@H]1CCC(C)=C[C@@H]21` [THC], in the test on migraine pain (acute), the “reduction of migraine pain” value is “effective”. Further, in the test on migraine pain (repeated exposure), the migraine-like pain result is listed as “increases”.

As to `Cc1c(C(=O)NN2CCCCC2)nn(-c2ccc(Cl)cc2Cl)c1-c1ccc(Cl)cc1` [rimonabant], the “shift of onset of MJN110 effect” value in test [3] (rimonabant 1 mg/kg IP prior to KCl, MJN110 10 mg/kg IP) is recorded as 30 min.

With `O=C(ON1C(=O)CCC1=O)N1CCN(C(c2ccc(Cl)cc2)c2ccc(Cl)cc2)CC1` [MJN110, 2,5-dioxopyrrolidin-1-yl 4-(bis(4-chlorophenyl)methyl)piperazine-1-carboxylate], the “reversal of periorbital allodynia” value in test [3] (MJN110 10 mg/kg IP after cortical KCl (0.5 μL)) is listed as “reverses”. In addition, the “prevention of periorbital allodynia” value in test [3] (MJN110 10 mg/kg IP before cortical KCl (0.5 μL)) is “prevents”.

As for `O=C(N1CCCCC1c1ccccc1)n1cc(-c2ccc(-c3cccc(CO)c3)cc2)nn1` (centres unmarked) [KT182, (4-(3′-(hydroxymethyl)-[1,1′-biphenyl]-4-yl)-1H-1,2,3-triazol-1-yl)(2-phenylpiperidin-1-yl) methanone], in test [3] (KT182 2 mg/kg IP after cortical KCl (0.5 μL)), the “reversal of periorbital allodynia” value is “reverses”. Moreover, the “prevention of periorbital allodynia” value in test [3] (KT182 2 mg/kg IP before cortical KCl (0.5 μL)) is recorded as “prevents”.

As for `CCN(CC)CC(=O)Nc1c(C)cccc1C` [lidocaine], the “block of cortical KCl induced periorbital allodynia” value in test [3] (dural lidocaine 2%, 5 μl, 10-15 min pretreatment, cortical KCl 0.5 μL, 1M) is “not blocked”. Besides, the “effect on periorbital allodynia after dural KCl” value in test [3] (lidocaine pretreatment, dural KCl 5 uL, 1M) is recorded as “no effect”.

With SR144528, the “effect on the anti-allodynic effect of MJN110” value in test [3] (SR144528 1 mg/kg IP prior to KCl, MJN110 10 mg/kg IP) is reported as “blocked”.
